Test results as given in the NIST ThermoML archive (doi:10.1021/je800248w).
± gives the expanded uncertainty stated by the source.

Legend:
[1] = excess molar enthalpy (molar enthalpy of mixing); xn = mol fraction of the nth substance listed; conditions: 101 kPa, Liquid, Calvet calorimetry
[2] = molar heat capacity at constant pressure; xn = mol fraction of the nth substance listed; conditions: 101.3 kPa, Liquid, Small sample (50 mg) DSC

CCOS(=O)(=O)[O-].CCn1cc[n+](C)c1 [1-ethyl-3-methylimidazolium ethyl sulfate] + O
Conditions | excess molar enthalpy [kcal/mol] | molar heat capacity at constant pressure [J/K/mol]
[1], 313.14 K, x2 = 0.2496 | -0.109 ± 0.00454 | –
[1], 313.14 K, x2 = 0.2497 | -0.11 ± 0.00454 | –
[1], 313.14 K, x2 = 0.4936 | -0.183 ± 0.00741 | –
[1], 313.14 K, x2 = 0.4951 | -0.184 ± 0.00741 | –
[1], 313.14 K, x2 = 0.7491 | -0.231 ± 0.00932 | –
[1], 313.14 K, x2 = 0.7495 | -0.233 ± 0.00956 | –
[1], 323.12 K, x2 = 0.2425 | -0.116 ± 0.00478 | –
[1], 323.12 K, x2 = 0.2486 | -0.114 ± 0.00478 | –
[1], 323.12 K, x2 = 0.4979 | -0.189 ± 0.00765 | –
[1], 323.12 K, x2 = 0.4991 | -0.189 ± 0.00765 | –
[1], 323.12 K, x2 = 0.7464 | -0.221 ± 0.00908 | –
[1], 323.12 K, x2 = 0.7481 | -0.226 ± 0.00932 | –
[1], 333.11 K, x2 = 0.2483 | -0.119 ± 0.00478 | –
[1], 333.11 K, x2 = 0.2496 | -0.121 ± 0.00502 | –
[1], 333.11 K, x2 = 0.496 | -0.191 ± 0.00789 | –
[1], 333.11 K, x2 = 0.4974 | -0.189 ± 0.00765 | –
[1], 333.11 K, x2 = 0.7476 | -0.218 ± 0.00884 | –
[1], 333.11 K, x2 = 0.7484 | -0.218 ± 0.00884 | –
[1], 348.12 K, x2 = 0.2492 | -0.125 ± 0.00502 | –
[1], 348.12 K, x2 = 0.2499 | -0.125 ± 0.00502 | –
[1], 348.12 K, x2 = 0.4948 | -0.191 ± 0.00789 | –
[1], 348.12 K, x2 = 0.498 | -0.191 ± 0.00789 | –
[1], 348.12 K, x2 = 0.7477 | -0.199 ± 0.00813 | –
[1], 348.12 K, x2 = 0.7483 | -0.199 ± 0.00813 | –
[2], 283.15 K, x2 = 0 | – | 365 ± 30
[2], 283.15 K, x2 = 0.212 | – | 294 ± 24
[2], 283.15 K, x2 = 0.4079 | – | 235 ± 19
[2], 283.15 K, x2 = 0.5925 | – | 179 ± 15
[2], 283.15 K, x2 = 0.766 | – | 142 ± 12
[2], 283.15 K, x2 = 0.8495 | – | 115 ± 9
[2], 283.15 K, x2 = 0.9282 | – | 95 ± 8
[2], 283.15 K, x2 = 0.9684 | – | 83 ± 7
[2], 283.15 K, x2 = 0.9916 | – | 78 ± 6
[2], 293.15 K, x2 = 0 | – | 371 ± 30
[2], 293.15 K, x2 = 0.212 | – | 297 ± 24
[2], 293.15 K, x2 = 0.4079 | – | 239 ± 19
[2], 293.15 K, x2 = 0.5925 | – | 184 ± 15
[2], 293.15 K, x2 = 0.766 | – | 145 ± 12
[2], 293.15 K, x2 = 0.8495 | – | 118 ± 10
[2], 293.15 K, x2 = 0.9282 | – | 96 ± 8
[2], 293.15 K, x2 = 0.9684 | – | 85 ± 7
[2], 293.15 K, x2 = 0.9916 | – | 78 ± 6
[2], 303.15 K, x2 = 0 | – | 380 ± 31
[2], 303.15 K, x2 = 0.212 | – | 304 ± 25
[2], 303.15 K, x2 = 0.4079 | – | 245 ± 20
[2], 303.15 K, x2 = 0.5925 | – | 190 ± 15
[2], 303.15 K, x2 = 0.766 | – | 149 ± 12
[2], 303.15 K, x2 = 0.8495 | – | 122 ± 10
[2], 303.15 K, x2 = 0.9282 | – | 98 ± 8
[2], 303.15 K, x2 = 0.9684 | – | 86 ± 7
[2], 303.15 K, x2 = 0.9916 | – | 79 ± 6
[2], 313.15 K, x2 = 0 | – | 386 ± 31
[2], 313.15 K, x2 = 0.212 | – | 309 ± 25
[2], 313.15 K, x2 = 0.4079 | – | 249 ± 20
[2], 313.15 K, x2 = 0.5925 | – | 193 ± 16
[2], 313.15 K, x2 = 0.766 | – | 152 ± 12
[2], 313.15 K, x2 = 0.8495 | – | 124 ± 10
[2], 313.15 K, x2 = 0.9282 | – | 100 ± 8
[2], 313.15 K, x2 = 0.9684 | – | 87 ± 7
[2], 313.15 K, x2 = 0.9916 | – | 79 ± 6
[2], 323.15 K, x2 = 0 | – | 392 ± 32
[2], 323.15 K, x2 = 0.212 | – | 314 ± 26
[2], 323.15 K, x2 = 0.4079 | – | 253 ± 21
[2], 323.15 K, x2 = 0.5925 | – | 197 ± 16
[2], 323.15 K, x2 = 0.766 | – | 154 ± 13
[2], 323.15 K, x2 = 0.8495 | – | 126 ± 10
[2], 323.15 K, x2 = 0.9282 | – | 101 ± 8
[2], 323.15 K, x2 = 0.9684 | – | 88 ± 7
[2], 323.15 K, x2 = 0.9916 | – | 79 ± 6
[2], 333.15 K, x2 = 0 | – | 397 ± 32
[2], 333.15 K, x2 = 0.212 | – | 319 ± 26
[2], 333.15 K, x2 = 0.4079 | – | 256 ± 21
[2], 333.15 K, x2 = 0.5925 | – | 201 ± 16
[2], 333.15 K, x2 = 0.766 | – | 157 ± 13
[2], 333.15 K, x2 = 0.8495 | – | 127 ± 10
[2], 333.15 K, x2 = 0.9282 | – | 102 ± 8
[2], 333.15 K, x2 = 0.9684 | – | 88 ± 7
[2], 333.15 K, x2 = 0.9916 | – | 80 ± 7
[2], 343.15 K, x2 = 0 | – | 403 ± 33
[2], 343.15 K, x2 = 0.212 | – | 324 ± 26
[2], 343.15 K, x2 = 0.4079 | – | 260 ± 21
[2], 343.15 K, x2 = 0.5925 | – | 204 ± 17
[2], 343.15 K, x2 = 0.766 | – | 158 ± 13
[2], 343.15 K, x2 = 0.8495 | – | 129 ± 10
[2], 343.15 K, x2 = 0.9282 | – | 103 ± 8
[2], 343.15 K, x2 = 0.9684 | – | 89 ± 7
[2], 343.15 K, x2 = 0.9916 | – | 80 ± 7
